Each molecule was assayed against His-Tagged hOGA (human O-GlcNAcase) (Homo sapiens (Human), UniProt O60502) (assay: Human O-GlcNAcase enzyme inhibition assay (Example B01)). Details: OGA enzyme inhibition assay; FL-GlcNAc substrate, 60 min, room temperature, pH 6.5.
Assay type: biochemical
Procedure: Example B01: Human O-GlcNAcase Enzyme Inhibition Assay
5 μl of the appropriate concentration of a solution of inhibitor in McIlvaine's Buffer (pH 6.5) in 2% DMSO (for a dose response curve calculation) is added into each well of a 384-well plate (Greiner, 781900). Then, 20 nM of His-Tagged hOGA and 10 μM of FL-GlcNAc (Fluorescein mono-beta-D-(2-deoxy-2-N-acetyl) glucopyranoside; Marker Gene Technologies Inc, M1485) were added to the 384-well plate for a final volume of 20 μl. After incubation for 60 min at room temperature, the reaction was terminated by the addition of 10 μL of stop buffer (200 mM glycine, pH 10.75). The level of fluorescence (λexc 485 nm; (λemm 520 nm) was read on a PHERAstar machine. The amount of fluorescence measured was plotted against the concentration of inhibitor to produce a sigmoidal dose response curve to calculate an IC50. All individual data was corrected by subtraction of the background (Thiamet 3 uM=100% inhibition) whilst 0.5% DMSO was considered as the control value (no inhibition).

His-Tagged hOGA (human O-GlcNAcase), sequence (O60502 whole entry): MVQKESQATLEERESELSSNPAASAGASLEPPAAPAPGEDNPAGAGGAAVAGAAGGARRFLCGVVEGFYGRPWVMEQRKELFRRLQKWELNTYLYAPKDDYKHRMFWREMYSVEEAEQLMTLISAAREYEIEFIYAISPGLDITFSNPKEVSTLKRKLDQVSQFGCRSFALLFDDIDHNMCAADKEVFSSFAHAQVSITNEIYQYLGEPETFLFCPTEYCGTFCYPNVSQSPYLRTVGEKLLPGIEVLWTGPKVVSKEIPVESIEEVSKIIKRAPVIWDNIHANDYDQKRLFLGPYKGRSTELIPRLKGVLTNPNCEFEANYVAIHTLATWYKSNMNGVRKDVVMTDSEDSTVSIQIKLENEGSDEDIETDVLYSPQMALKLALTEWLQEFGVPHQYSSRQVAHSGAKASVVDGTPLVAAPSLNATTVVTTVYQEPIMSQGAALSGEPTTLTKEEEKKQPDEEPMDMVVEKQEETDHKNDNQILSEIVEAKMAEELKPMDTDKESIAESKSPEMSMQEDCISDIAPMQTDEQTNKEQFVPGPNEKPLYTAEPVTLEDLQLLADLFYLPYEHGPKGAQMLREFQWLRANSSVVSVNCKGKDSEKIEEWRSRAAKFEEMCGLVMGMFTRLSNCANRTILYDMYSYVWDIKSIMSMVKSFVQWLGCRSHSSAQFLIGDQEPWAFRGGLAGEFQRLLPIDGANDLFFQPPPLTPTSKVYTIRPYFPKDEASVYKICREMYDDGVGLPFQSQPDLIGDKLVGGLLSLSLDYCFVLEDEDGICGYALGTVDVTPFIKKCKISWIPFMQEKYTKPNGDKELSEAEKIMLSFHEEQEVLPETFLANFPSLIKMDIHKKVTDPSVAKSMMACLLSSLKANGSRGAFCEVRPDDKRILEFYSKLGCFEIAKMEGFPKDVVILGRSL

**Q.** Which IC50 does the source give for `CC(c1ccc2scnc2c1)N1CCC2(CC1)NC(=O)N(Cc1cncnc1)C2=O` (racemic) [Example 5] here?
**A.** Its IC50 is 50 to 200 nM.

**Q.** `CC(c1ccc2scnc2c1)N1CCC2(CC1)C(=O)N(Cc1ccc(S(C)(=O)=O)cc1)C(=O)N2Cc1ccc(S(C)(=O)=O)cc1` (racemic) [Example 24, 8-(1-(benzo[d]thiazol-5-yl)ethyl)-1,3-bis(4-(methylsulfonyl)benzyl)-1,3,8-triazaspiro[4.5]decane-2,4-dione] was tested. Which IC50 did it give?
**A.** The IC50 was 200 to 1000 nM.

**Q.** With `CC(c1ccc2scnc2c1)N1CCC2(CC1)NC(=O)N(C)C2=O` (racemic) [Example 1, 8-(1-(benzo[d]thiazol-5-yl)ethyl)-3-methyl-1,3,8-triazaspiro[4.5]decane-2,4-dione] as the molecule, how does the IC50 read?
**A.** The IC50 was 200 to 1000 nM.

**Q.** Which IC50 does the source give for `CSc1cnc(N2CC3(CCN(Cc4cnc(NC(C)=O)s4)CC3)NC2=O)nc1` (racemic) [IA6] here?
**A.** The IC50 was under 50 nM.

**Q.** With `CC(c1ccc2scnc2c1)N1CCC2(CC1)NC(=O)N(Cc1ccc(S(C)(=O)=O)cc1)C2=O` (stereo not drawn) [Example 10] as the molecule, how does the IC50 read?
**A.** Its IC50 is 50 to 200 nM.

**Q.** For `CC(c1ccc2scnc2c1)N1CCC2(CC1)NC(=O)N(Cc1ccc(C#N)cc1)C2=O` (racemic) [Example 22, 4-((8-(1-(benzo[d]thiazol-5-yl)ethyl)-2,4-dioxo-1,3,8-triazaspiro[4.5]decan-3-yl)methyl)benzonitrile], which IC50 is on record?
**A.** The IC50 was 50 to 200 nM.

**Q.** With `Cc1cc(N2C(=O)NC3(CCN(C(C)c4ccc5scnc5c4)CC3)C2=O)cc(C)n1` (racemic) [Example 60] as the molecule, how does the IC50 read?
**A.** Its IC50 is under 50 nM.

**Q.** For `Cc1cc(CN2C(=O)NC3(CCN(C(C)c4ccc5scnc5c4)CC3)C2=O)cc(C)n1` (racemic) [Example 66], which IC50 is on record?
**A.** The IC50 was 50 to 200 nM.

**Q.** `CC(c1ccc2scnc2c1)N1CCC2(CC1)NC(=O)NC2=O` (racemic) [Example 3, 8-(1-(benzo[d]thiazol-5-yl)ethyl)-1,3,8-triazaspiro[4.5]decane-2,4-dione] was tested. Which IC50 did it give?
**A.** Its IC50 is 1000 to 10000 nM.

**Q.** For `CC(c1ccc2c(c1)OCC2)N1CCC2(CC1)C(=O)N(Cc1ccc(C#N)cc1)C(=O)N2C` (racemic) [Example 74], which IC50 is on record?
**A.** Its IC50 is 1000 to 10000 nM.

**Q.** Which IC50 does the source give for `CC(=O)Nc1ncc(CN2CCC3(CC2)NC(=O)N(Cc2ccc(C(F)(F)F)nc2)C3=O)s1` [IA1] here?
**A.** Its IC50 is 50 to 200 nM.

**Q.** How did the IC50 turn out when `CC(c1ccc2c(c1)OCC2)N1CCC2(CC1)NC(=O)N(c1ccc(C#N)cc1)C2=O` (racemic) [Example 12, 4-(8-(1-(2,3-dihydrobenzofuran-6-yl)ethyl)-2,4-dioxo-1,3,8-triazaspiro[4.5]decan-3-yl)benzonitrile] was run?
**A.** The IC50 was under 50 nM.

**Q.** With `CC(c1ccc2scnc2c1)N1CCC2(CC1)CN(c1cccnn1)C(=O)N2` (racemic) [Example 59] as the molecule, how does the IC50 read?
**A.** The IC50 was under 50 nM.

**Q.** With `CC(=O)Nc1ncc(CN2CCC3(CC2)NC(=O)N(c2cc(C)nc(C)c2)C3=O)s1` (racemic) [IA2] as the molecule, how does the IC50 read?
**A.** Its IC50 is 50 to 200 nM.

**Q.** With `CC(c1ccc2scnc2c1)N1CCC2(CC1)CN(c1cccc(S(C)(=O)=O)c1)C(=O)N2` (racemic) [Example 35, 8-(1-(benzo[d]thiazol-5-yl)ethyl)-3-(3-(methylsulfonyl)phenyl)-1,3,8-triazaspiro[4.5]decan-2-one] as the molecule, how does the IC50 read?
**A.** Its IC50 is 50 to 200 nM.

**Q.** With `CC(c1ccc2c(c1)OCC2)N1CCC2(CC1)C(=O)N(Cc1ccc(C#N)cc1)C(=O)N2Cc1ccc(C#N)cc1` (racemic) [Example 30, 4,4′-((8-(1-(2,3-dihydrobenzofuran-6-yl)ethyl)-2,4-dioxo-1,3,8-triazaspiro[4.5]decane-1,3-diyl)bis(methylene))dibenzonitrile] as the molecule, how does the IC50 read?
**A.** Its IC50 is 200 to 1000 nM.

**Q.** How did the IC50 turn out when `CC(c1ccc2scnc2c1)N1CCC2(CC1)CN(c1cncnc1)C(=O)N2` (racemic) [Example 37, 8-(1-(benzo[d]thiazol-5-yl)ethyl)-3-(pyrimidin-5-yl)-1,3,8-triazaspiro[4.5]decan-2-one] was run?
**A.** The IC50 was 50 to 200 nM.

**Q.** For `CC(c1ccc2scnc2c1)N1CCC2(CC1)C(=O)N(Cc1ccc(C#N)cc1)C(=O)N2C` (racemic) [Example 75], which IC50 is on record?
**A.** Its IC50 is 1000 to 10000 nM.

**Q.** With `Cc1ccc(N2C(=O)NC3(CCN(C(C)c4ccc5scnc5c4)CC3)C2=O)cn1` (racemic) [Example 61] as the molecule, how does the IC50 read?
**A.** Its IC50 is 50 to 200 nM.

**Q.** With `CC(c1ccc2scnc2c1)N1CCC2(CC1)C(=O)N(Cc1ccc(C#N)cc1)C(=O)N2Cc1ccc(C#N)cc1` (racemic) [Example 23, 4,4′-((8-(1-(benzo[d]thiazol-5-yl)ethyl)-2,4-dioxo-1,3,8-triazaspiro[4.5]decane-1,3-diyl)bis(methylene))dibenzonitrile] as the molecule, how does the IC50 read?
**A.** Its IC50 is 200 to 1000 nM.

**Q.** Which IC50 does the source give for `CC(c1ccc2c(c1)OCC2)N1CCC2(CC1)NC(=O)N(Cc1cncnc1)C2=O` (racemic) [Example 4, 8-(1-(2,3-dihydrobenzofuran-6-yl)ethyl)-3-(pyrimidin-5-ylmethyl)-1,3,8-triazaspiro[4.5]decane-2,4-dione] here?
**A.** The IC50 was 50 to 200 nM.

**Q.** For `CC(c1ccc2scnc2c1)N1CCC2(CC1)C(=O)Nc1ccccc12` (racemic) [Example 20, 1′-(1-(benzo[d]thiazol-5-yl)ethyl)spiro[indoline-3,4′-piperidin]-2-one], which IC50 is on record?
**A.** The IC50 was 200 to 1000 nM.

**Q.** Which IC50 does the source give for `CC(c1ccc2scnc2c1)N1CCC2(CC1)NC(=O)N(c1ccc(C#N)cc1)C2=O` (racemic) [Example 13, 4-(8-(1-(benzo[d]thiazol-5-yl)ethyl)-2,4-dioxo-1,3,8-triazaspiro[4.5]decan-3-yl)benzonitrile] here?
**A.** The IC50 was 50 to 200 nM.

**Q.** How did the IC50 turn out when `CC(c1ccc2c(c1)OCC2)N1CCC2(CC1)CC(=O)N(Cc1ccc(S(C)(=O)=O)cc1)C2` (racemic) [Example 18, 8-(1-(2,3-dihydrobenzofuran-6-yl)ethyl)-2-(4-(methylsulfonyl)benzyl)-2,8-diazaspiro[4.5]decan-3-one] was run?
**A.** Its IC50 is 200 to 1000 nM.

**Q.** `CC(c1ccc2scnc2c1)N1CCC2(CC1)CCN(S(C)(=O)=O)C2` (racemic) [Example 31, 5-(1-(2-(methylsulfonyl)-2,8-diazaspiro[4.5]decan-8-yl)ethyl) benzo[d]thiazole] was tested. Which IC50 did it give?
**A.** Its IC50 is 1000 to 10000 nM.

**Q.** With `Cc1cc(CN2C(=O)NC3(CCN(C(C)c4ccc5scnc5c4)CC3)C2=O)ccn1` (racemic) [Example 67] as the molecule, how does the IC50 read?
**A.** The IC50 was 50 to 200 nM.

**Q.** How did the IC50 turn out when `CC(c1ccc2scnc2c1)N1CCC2(CC1)C(=O)N(Cc1ccc(S(C)(=O)=O)cc1)C(=O)N2C` (racemic) [Example 77] was run?
**A.** Its IC50 is 1000 to 10000 nM.

**Q.** `CC(=O)Nc1ncc(CN2CCC3(CC2)NC(=O)N(Cc2ccnc(C)c2)C3=O)s1` (racemic) [IA5] was tested. Which IC50 did it give?
**A.** The IC50 was under 50 nM.

**Q.** `CC(c1ccc2scnc2c1)N1CCC2(CC1)NC(=O)N(c1cncnc1)C2=O` (racemic) [Example 62] was tested. Which IC50 did it give?
**A.** The IC50 was 50 to 200 nM.

**Q.** `CC(c1ccc2c(c1)OCC2)N1CCC2(CC1)NC(=O)N(Cc1ccc(S(C)(=O)=O)cc1)C2=O` (racemic) [Example 11] was tested. Which IC50 did it give?
**A.** The IC50 was under 50 nM.

**Q.** For `CC(c1ccc2c(c1)OCC2)N1CCC2(CC1)NC(=O)N(Cc1ccc(C(F)(F)F)nc1)C2=O` (racemic) [Example 9], which IC50 is on record?
**A.** The IC50 was 50 to 200 nM.

**Q.** For `CC(c1ccc2scnc2c1)N1CCC2(CC1)CN(Cc1ccc(C#N)cc1)C(=O)N2` (racemic) [Example 32, 4-((8-(1-(benzo[d]thiazol-5-yl)ethyl)-2-oxo-1,3,8-triazaspiro[4.5]decan-3-yl)methyl)benzonitrile], which IC50 is on record?
**A.** The IC50 was 50 to 200 nM.

**Q.** Which IC50 does the source give for `CC(c1ccc2scnc2c1)N1CCC2(CC1)C(=O)N(Cc1ccc(C#N)cc1)c1ccccc12` (racemic) [Example 29, 4-((1′-(1-(benzo[d]thiazol-5-yl)ethyl)-2-oxospiro[indoline-3,4′-piperidin]-1-yl)methyl)benzonitrile] here?
**A.** Its IC50 is 200 to 1000 nM.

**Q.** How did the IC50 turn out when `CC(c1ccc2scnc2c1)N1CCC2(CC1)NC(=O)N(Cc1ccc(C(F)(F)F)nc1)C2=O` (racemic) [Example 8] was run?
**A.** The IC50 was 50 to 200 nM.

**Q.** For `Cc1cc(N2CC3(CCN(C(C)c4ccc5scnc5c4)CC3)CC2=O)n2nccc2n1` (racemic) [Example 72], which IC50 is on record?
**A.** Its IC50 is 1000 to 10000 nM.

**Q.** With `CC(c1ccc2scnc2c1)N1CCC2(CC1)NC(=O)N(c1cccc(S(C)(=O)=O)c1)C2=O` (racemic) [Example 64] as the molecule, how does the IC50 read?
**A.** The IC50 was 50 to 200 nM.
